From PubChem BioAssay (NCI)
“And” between values parts separate entries of the source, which are not always exact repeats. Equal entries are not always repeated.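 A five-concentration, 48-hour dose response in 96-well plates underlies each endpoint, interpolated linearly between surrounding concentrations. Abbreviation: GI50, concentration required for 50% inhibition of growth. TGI marks complete inhibition of growth.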

Key:
Experiment in all cases: NCI-60 cell line screen, 48 h
[1] = system: TK-10 renal
[2] = system: M14 melanoma
[3] = system: BT-549 breast
[4] = system: MOLT-4 leukemia
[5] = system: A549 NSCLC
[6] = system: MCF7 breast
[7] = system: RPMI-8226 leukemia
[8] = system: PC-3 prostate
[9] = system: MDA-MB-435
[10] = system: HT29 colon

With `Cc1nc2ccccn2c1NC(=O)NNC(=S)Nc1ccc(Br)cc1` the GI50 [1] was 74.1 µM, the TGI [1] was > 100 µM and the GI50 [2] was 24.5 µM. The TGI [2] was 67.9 µM, the GI50 [3] was 42.8 µM and the TGI [3] was > 100 µM. The GI50 [4] was 36.7 µM, the TGI [4] was > 100 µM and the GI50 [5] was 71.6 µM. For the same compound, the TGI [5] was > 100 µM, the GI50 [6] was 29.4 µM and the TGI [6] was > 100 µM. The GI50 [7] was 41.6 µM, the TGI [7] was > 100 µM and the GI50 [8] was 24.5 µM. For the same compound, the TGI [8] was > 100 µM, the GI50 [9] was 29.3 µM and the TGI [9] was 70.6 µM. The GI50 [10] was 24.9 µM and the TGI [10] was 69.8 µM.
For `CC(C)CC1C(=O)N2CCC[C@H]2C2(O)O[C@](NC(=O)C3C=C4c5cccc6[nH]c(Br)c(c56)C[C@H]4N(C)C3)(C(C)C)C(=O)N12` (stereo partly specified), the GI50 [1] was 5.06 µM, the TGI [1] was > 100 µM and the GI50 [2] was > 100 µM. For the same compound, the TGI [2] was > 100 µM, the GI50 [3] was 11.7 µM and the TGI [3] was > 100 µM. The GI50 [4] was 5.06 µM, the TGI [4] was > 100 µM and the GI50 [5] was 4.72 µM. The TGI [5] was > 100 µM, the GI50 [6] was 4.92 µM and the TGI [6] was > 100 µM. For the same compound, the TGI [7] was > 100 µM, the GI50 [8] was 3 µM and the TGI [8] was > 100 µM. The GI50 [9] was 16.7 µM, the TGI [9] was > 100 µM and the TGI [10] was > 100 µM.
`C[C@H]1CC[C@H]([C@@H](C)[C@H]2[C@@H](O)C[C@H]3[C@@H]4CC[C@H]5C[C@@H](O)CC[C@]5(C)[C@H]4CC[C@]23C)NC1` showed a TGI [1] of 38.1 µM, a TGI [2] of 59.2 µM and a TGI [3] of 32.5 µM. It also gave a TGI [4] of 27.4 µM, a TGI [5] of 51 µM and a TGI [6] of 47.2 µM. For the same compound, the TGI [7] was 30.7 µM, the TGI [8] was 31 µM and the TGI [9] was 32.3 µM. It also gave a TGI [10] of 34.2 µM.
With `C=CC(=O)N1C/C(=C\c2ccccc2)C(=O)/C(=C/c2ccccc2)C1` the TGI [1] was 7 µM, the TGI [2] was 4.58 µM and the TGI [3] was 4.24 µM. The GI50 [4] was 0.562 µM, the TGI [4] was 4.5 µM and the TGI [5] was 9 µM. It also gave a GI50 [6] of 0.395 µM, a TGI [6] of 2.06 µM and a GI50 [7] of 0.17 µM. For the same compound, the TGI [7] was 0.871 µM and 1.08 µM, the TGI [8] was 3.91 µM and the GI50 [9] was 0.27 µM. The TGI [9] was 2.1 µM, the GI50 [10] was 0.528 µM and the TGI [10] was 2.87 µM.
Work on `Nc1ccccc1SC(CC(=O)c1ccccc1)c1ccc([N+](=O)[O-])cc1` (stereo unspecified) yielded a GI50 [1] of 18.6 µM, a TGI [1] of 32.7 µM and a GI50 [2] of 13.8 µM. It also gave a TGI [2] of 27.8 µM, a GI50 [3] of 13.6 µM and a TGI [3] of 26.6 µM. For the same compound, the GI50 [4] was 13.5 µM, the TGI [4] was 60.1 µM and the GI50 [5] was 16.6 µM. It also gave a TGI [5] of 32.6 µM, a GI50 [6] of 3.31 µM and a TGI [6] of 16.1 µM. The GI50 [7] was 2.91 µM, the TGI [7] was 9.06 µM and the GI50 [8] was 10.3 µM. It also gave a TGI [8] of 22.4 µM, a GI50 [9] of 14.3 µM and a TGI [9] of 28 µM. It also gave a GI50 [10] of 4.3 µM and a TGI [10] of 14.6 µM.
For `CCNCCC1(CC)C(=O)NC(=O)NC1=O`, the TGI [1] was > 100 µM, the TGI [2] was > 100 µM and the TGI [3] was > 100 µM. The TGI [4] was > 100 µM, the TGI [5] was > 100 µM and the TGI [6] was > 100 µM. The TGI [7] was > 100 µM, the TGI [8] was > 100 µM and the TGI [9] was > 100 µM. For the same compound, the TGI [10] was > 100 µM.
`C[C@@H](N)C1CCC(C(=O)Nc2ccncc2)CC1` (stereo partly specified) was tested, and the GI50 [1] was 8.7 µM, the TGI [1] was > 100 µM and the GI50 [2] was > 100 µM. For the same compound, the TGI [2] was > 100 µM, the GI50 [3] was > 88.4 µM and the TGI [3] was > 100 µM. For the same compound, the GI50 [4] was > 100 µM, the TGI [4] was > 100 µM and the GI50 [5] was > 100 µM. The TGI [5] was > 100 µM, the GI50 [6] was > 100 µM and the TGI [6] was > 100 µM. The GI50 [7] was > 100 µM, the TGI [7] was > 100 µM and the GI50 [8] was > 100 µM. For the same compound, the TGI [8] was > 100 µM, the GI50 [9] was > 100 µM and the TGI [9] was > 100 µM. For the same compound, the GI50 [10] was > 100 µM and the TGI [10] was > 100 µM.
With `Cc1ccc(S(=O)(=O)Oc2ccc([N+](=O)[O-])cc2[N+](=O)[O-])cc1` the GI50 [1] was 4.54 µM, the TGI [1] was 17.4 µM and the GI50 [2] was 2.57 µM. It also gave a TGI [2] of 10.9 µM, a GI50 [3] of 5.41 µM and a TGI [3] of 18 µM. For the same compound, the GI50 [4] was 3.82 µM, the TGI [4] was 55.1 µM and the GI50 [5] was 8.53 µM. For the same compound, the TGI [5] was 22.2 µM, the GI50 [6] was 4.13 µM and the TGI [6] was 23.2 µM. It also gave a GI50 [7] of 2.45 µM, a TGI [7] of 7.84 µM and a GI50 [8] of 5.15 µM. It also gave a TGI [8] of 26.5 µM, a GI50 [9] of 3.1 µM and a TGI [9] of 10.5 µM. It also gave a GI50 [10] of 3.63 µM and a TGI [10] of 58.7 µM.
Work on `Cc1cc(C(=O)Nc2nc3cccc(Cl)c3n2[C@@H]2CCCCN(C(=O)/C=C/CN(C)C)C2)ccn1` yielded a GI50 [1] of 1.07 µM, a TGI [1] of 16.4 µM and a GI50 [2] of 13.7 µM. It also gave a TGI [2] of 27.5 µM, a GI50 [3] of 7.26 µM and a TGI [3] of 20.9 µM. The GI50 [4] was 7.13 µM, the TGI [4] was 33.3 µM and the GI50 [5] was 6.37 µM. It also gave a TGI [5] of 31.8 µM, a GI50 [6] of 4.95 µM and a TGI [6] of 20.3 µM. It also gave a GI50 [7] of 9.25 µM, a TGI [7] of 32 µM and a GI50 [8] of 9.22 µM. For the same compound, the TGI [8] was 28.2 µM, the GI50 [9] was 9.49 µM and the TGI [9] was 23.3 µM. For the same compound, the GI50 [10] was 9.91 µM and the TGI [10] was 30.2 µM.
For `COc1cc(-c2nc(NC(C)=O)sc2-c2ccnc(NCCNS(=O)(=O)c3ccccc3)n2)ccc1Cl`, the GI50 [1] was 6.33 µM, the TGI [1] was > 100 µM and the GI50 [2] was 2.09 µM. The TGI [2] was 5.42 µM, the GI50 [3] was 3.1 µM and the TGI [3] was > 100 µM. For the same compound, the GI50 [4] was 3.17 µM, the TGI [4] was > 100 µM and the GI50 [5] was 4.5 µM. For the same compound, the TGI [5] was > 100 µM, the GI50 [6] was 2.4 µM and the TGI [6] was > 100 µM. The GI50 [7] was 3.77 µM, the TGI [7] was > 100 µM and the GI50 [8] was 2.88 µM. For the same compound, the TGI [8] was > 100 µM, the GI50 [9] was 0.799 µM and the TGI [9] was 3.45 µM. For the same compound, the GI50 [10] was 2.94 µM and the TGI [10] was > 100 µM.
`O=C(c1ccc(OCCN2CCCCC2)cc1)c1c(-c2ccc(O)cc2)sc2cc(O)ccc12` was tested, and the GI50 [1] was 16.7 µM and 16.3 µM, the TGI [1] was 31.8 µM and 33.3 µM and the GI50 [2] was 3.23 µM and 10.3 µM. For the same compound, the TGI [2] was 11.1 µM and 32.3 µM, the GI50 [3] was 7.8 µM and 12 µM and the TGI [3] was 21.5 µM and 27.9 µM. The GI50 [4] was 2.8 µM and 4.86 µM, the TGI [4] was 10.8 µM and 23.2 µM and the GI50 [5] was 13.2 µM and 14.3 µM. For the same compound, the TGI [5] was 29.3 µM and 37.9 µM, the GI50 [6] was 1.48 µM and the TGI [6] was 15.6 µM and 14 µM. The GI50 [7] was 5.54 µM and 2.41 µM, the TGI [7] was 77 µM and > 23.1 µM and the GI50 [8] was 3.9 µM and 11.7 µM. The TGI [8] was 18.9 µM and 35.7 µM, the GI50 [9] was 1.94 µM and 4.2 µM and the TGI [9] was 4.58 µM and 19.7 µM. The GI50 [10] was 14.9 µM and 4.1 µM and the TGI [10] was 32.3 µM and 33.4 µM.
In the case of `COc1c2ccoc2cc2oc(=O)ccc12`, the TGI [1] is reported as > 100 µM, the TGI [2] is reported as > 100 µM and the TGI [3] is reported as > 100 µM. The TGI [4] was > 100 µM, the TGI [5] was > 100 µM and the TGI [6] was > 100 µM. The TGI [7] was > 100 µM, the TGI [8] was > 100 µM and the TGI [9] was > 100 µM. For the same compound, the TGI [10] was > 100 µM.
For `CCc1c2c(nc3cc4c(c(N)c13)OCO4)-c1cc3c(c(=O)n1C2)COC(=O)[C@]3(O)CC`, the GI50 [1] was 3.03 µM and 0.483 µM, the TGI [1] was 6.25 µM and the GI50 [2] was < 0.001 µM. For the same compound, the TGI [2] was 1.03 µM, the GI50 [3] was < 0.001 µM and the TGI [3] was 4.39 µM. For the same compound, the GI50 [4] was < 0.001 µM, the GI50 [5] was < 0.001 µM and the TGI [5] was 1.01 µM and 1.47 µM. For the same compound, the GI50 [6] was < 0.001 µM, the TGI [6] was 0.0298 µM and the TGI [7] was 0.317 µM and 2.77 µM. For the same compound, the GI50 [8] was 0.228 µM and 0.0288 µM, the TGI [8] was > 100 µM and the GI50 [9] was 0.0241 µM and 0.0796 µM. For the same compound, the TGI [9] was 2.01 µM and 1.96 µM, the GI50 [10] was 0.0145 µM and the TGI [10] was > 100 µM.
In the case of `CCCCCCCCCCCCNC(=O)[C@H]1CSC(c2cc3ccccc3s2)N1` (stereo partly specified), the GI50 [1] is reported as 1.27 µM, the TGI [1] is reported as 4.88 µM and the GI50 [2] is reported as 0.591 µM. The TGI [2] was 1.11 µM, the GI50 [3] was 1.01 µM and the TGI [3] was 4.11 µM. For the same compound, the GI50 [4] was 0.657 µM, the TGI [4] was 1.37 µM and the GI50 [5] was 6.01 µM. The TGI [5] was 11.3 µM, the GI50 [6] was 4.02 µM and the TGI [6] was 9.15 µM. The GI50 [7] was 6 µM, the TGI [7] was 15.3 µM and the GI50 [8] was 1.3 µM. For the same compound, the TGI [8] was 4.21 µM, the GI50 [9] was 0.605 µM and the TGI [9] was 1.19 µM. It also gave a GI50 [10] of 1.74 µM and a TGI [10] of 5.87 µM.
